Results from ChEMBL document CHEMBL1129748, “Structure-activity relationships of 4-hydroxy-3-nitroquinolin-2(1H)-ones as novel antagonists at the glycine site of N-methyl-D-aspartate receptors” (J Med Chem, 1996).

biological target: T1, Glutamate receptor ionotropic, AMPA (Rattus norvegicus) (UniProt P19491+P19492+P19493+P19490); assay: Compound was tested for inhibition of AMPA receptors was measured in oocytes expressing rat cerebral cortex poly(A)+ RNA.(Three cells were examined); assay type: functional, cell-based; settings: Oocyte

Which Kb does the source give for `O=[N+]([O-])c1c(O)nc2cc(Cl)cc(Cl)c2c1O` here?
Its Kb is 37 µM.

system: not listed separately; assay: Compound was tested for steady-state selectivity index for inhibition at NMDA receptor glycine sites was estimated by dividing Kb AMPA by Kb glycine.; assay type: functional; settings: not given

With `O=[N+]([O-])c1c(O)nc2cc(Cl)cc(Cl)c2c1O` as the compound, how does the Selectivity read?
The Selectivity was 118.

For `Cc1cc(C)c2c(O)c([N+](=O)[O-])c(O)nc2c1`, which Selectivity is on record?
The Selectivity was 164.

biological target: Glutamate NMDA receptor; assay: Inhibition of [3H]DCKA binding to NMDA receptor of rat brain membranes.; assay type: cell membranes, Membrane; settings: not given

With `Oc1nc2cc(Cl)c(Cl)c(Cl)c2nc1O` as the compound, how does the IC50 read?
The IC50 was 0.03 µM.

For `O=Nc1c(O)nc2cc(Cl)c(Cl)c(Cl)c2c1O`, which IC50 is on record?
The IC50 was 0.007 µM.

Which IC50 does the source give for `O=Nc1c(O)nc2cccc(Cl)c2c1O` here?
Its IC50 is 4.4 µM.

Which IC50 does the source give for `Oc1nc2ccccc2nc1O` here?
The IC50 was 9.8 µM.

For `O=[N+]([O-])c1c(O)nc2cc(Cl)cc(Cl)c2c1O`, which IC50 is on record?
The IC50 was 0.22 µM.

Which IC50 does the source give for `O=[N+]([O-])c1c(O)nc2cc(Cl)c(Cl)cc2c1O` here?
The IC50 was 0.4 µM.

For `O=c1[nH]c2c(F)c(F)c(F)c(F)c2[nH]c1=O`, which IC50 is on record?
Its IC50 is 0.73 µM.

Which IC50 does the source give for `O=[N+]([O-])c1c(O)nc2ccc(Cl)cc2c1O` here?
The IC50 was over 100 µM.

With `O=Nc1c(O)nc2cc(Cl)ccc2c1O` as the compound, how does the IC50 read?
The IC50 was 0.053 µM.

Which IC50 does the source give for `O=[N+]([O-])c1c(O)nc2c(F)c(Cl)c(F)cc2c1O` here?
Its IC50 is 40 µM.

Which IC50 does the source give for `O=[N+]([O-])c1c(O)nc2cccc(Cl)c2c1O` here?
Its IC50 is 61 µM.

With `O=[N+]([O-])c1c(O)nc2c(Cl)c(Cl)c(Cl)cc2c1O` as the compound, how does the IC50 read?
The IC50 was over 100 µM.

With `O=Nc1c(O)nc2c(Cl)cccc2c1O` as the compound, how does the IC50 read?
The IC50 was over 100 µM.

With `O=Nc1c(O)c2cc(F)c(Cl)c(F)c2[nH]c1=O` as the compound, how does the IC50 read?
The IC50 was 0.91 µM.

With `Oc1nc2cc(Cl)c(Cl)cc2nc1O` [2,3-DIHYDROXY-6,7-DICHLOROQUINOXALINE] as the compound, how does the IC50 read?
Its IC50 is 0.13 µM.

For `Cc1cc(C)c2c(O)c(N=O)c(=O)[nH]c2c1`, which IC50 is on record?
Its IC50 is 0.037 µM.

With `O=[N+]([O-])c1c(O)nc2c(Cl)cccc2c1O` as the compound, how does the IC50 read?
Its IC50 is over 100 µM.

With `O=Nc1c(O)c2c(F)c(F)c(F)c(F)c2[nH]c1=O` as the compound, how does the IC50 read?
Its IC50 is 3.3 µM.

Which IC50 does the source give for `O=Nc1c(O)nc2cc(Cl)c(Cl)cc2c1O` here?
Its IC50 is 0.012 µM.

For `O=[N+]([O-])c1c(O)nc2c(F)c(F)c(F)c(F)c2c1O`, which IC50 is on record?
Its IC50 is over 100 µM.

Which IC50 does the source give for `Oc1nc2cc(F)c(Cl)c(F)c2nc1O` here?
Its IC50 is 0.63 µM.

With `O=[N+]([O-])c1c(O)nc2ccccc2c1O` as the compound, how does the IC50 read?
The IC50 was 34 µM.

Which IC50 does the source give for `Cc1cc(C)c2nc(O)c(O)nc2c1` here?
The IC50 was 2.1 µM.

With `O=c1[nH]c2ccc(Cl)cc2[nH]c1=O` as the compound, how does the IC50 read?
The IC50 was 1.8 µM.

For `O=[N+]([O-])c1c(O)nc2cc(Cl)c(Cl)c(Cl)c2c1O`, which IC50 is on record?
The IC50 was 0.22 µM.

Which IC50 does the source give for `O=Nc1c(O)c2cc(Cl)ccc2[nH]c1=O` here?
Its IC50 is 3.4 µM.

With `O=Nc1c(O)c2c(Cl)cc(Cl)cc2[nH]c1=O` as the compound, how does the IC50 read?
The IC50 was 0.033 µM.

With `Oc1nc2cc(Cl)cc(Cl)c2nc1O` as the compound, how does the IC50 read?
Its IC50 is 0.28 µM.

For `Cc1cc(C)c2c(O)c([N+](=O)[O-])c(O)nc2c1`, which IC50 is on record?
Its IC50 is 0.29 µM.

With `O=Nc1c(O)nc2ccccc2c1O` as the compound, how does the IC50 read?
The IC50 was 1.4 µM.

biological target: Glutamate NMDA receptor; assay: Compound was tested for inhibition of [3H]DCKA binding to NMDA receptor of rat brain membranes; assay type: cell membranes, Membrane; settings: not given

With `O=[N+]([O-])c1c(O)nc2cc(Cl)ccc2c1O` as the compound, how does the IC50 read?
The IC50 was 1.5 µM.

biological target: T1, Glutamate receptor ionotropic, AMPA (Rattus norvegicus); assay: Compound was tested for inhibition of AMPA receptors was measured in oocytes expressing rat cerebral cortex poly(A)+ RNA.(Three cells were examined ); assay type: functional, cell-based; settings: Oocyte

With `O=[N+]([O-])c1c(O)nc2cc(Cl)c(Cl)c(Cl)c2c1O` as the compound, how does the Kb read?
Its Kb is 19 µM.

system: not listed separately; assay: Compound was tested for steady-state selectivity index for inhibition at NMDAreceptor glycine sites was estimated by dividing Kb AMPA by Kb glycine.; assay type: functional; settings: not given

For `O=[N+]([O-])c1c(O)nc2cc(Cl)c(Cl)c(Cl)c2c1O`, which Selectivity is on record?
Its Selectivity is 240.
